# According to ChEMBL document CHEMBL4033634, “Synthesis and biological evaluation of novel aromatic and heterocyclic bis-sulfonamide Schiff bases as carbonic anhydrase I, II, VII and IX inhibitors” (Bioorg Med Chem, 2017):
# Molecular target: Carbonic anhydrase 1 (Homo sapiens, UniProt P00915)
# Experiment: Inhibition of human carbonic anhydrase 1 incubated for 10 mins by stopped flow CO2 hydrase assay
# Carbonic anhydrase 1, sequence (P00915 whole entry): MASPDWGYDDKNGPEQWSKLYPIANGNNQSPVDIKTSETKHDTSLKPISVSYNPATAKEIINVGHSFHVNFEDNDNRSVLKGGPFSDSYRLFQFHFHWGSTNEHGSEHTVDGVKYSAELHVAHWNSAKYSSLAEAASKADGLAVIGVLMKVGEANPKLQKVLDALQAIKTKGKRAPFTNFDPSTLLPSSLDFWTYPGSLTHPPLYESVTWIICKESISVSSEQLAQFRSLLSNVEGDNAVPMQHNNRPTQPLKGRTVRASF
row,SMILES,Ki
1,NS(=O)(=O)c1cccc(/N=C/c2ccc(/C=N/c3cccc(S(N)(=O)=O)c3)o2)c1,> 10000 nM

# Molecular target: Carbonic anhydrase 9 (Homo sapiens, UniProt Q16790)
# Experiment: Inhibition of human carbonic anhydrase 9 incubated for 10 mins by stopped flow CO2 hydrase assay
row,SMILES,Ki
1,NS(=O)(=O)c1cccc(/N=C/c2ccc(/C=N/c3cccc(S(N)(=O)=O)c3)o2)c1,516 nM
2,NS(=O)(=O)c1cccc(/N=C/c2cccc(/C=N/c3cccc(S(N)(=O)=O)c3)c2)c1,678 nM
3,NS(=O)(=O)c1ccc(/N=C/c2cccc(/C=N/c3ccc(S(N)(=O)=O)cc3)c2)cc1,93.1 nM
4,NS(=O)(=O)c1ccc(CC/N=C/c2ccc(/C=N/CCc3ccc(S(N)(=O)=O)cc3)o2)cc1,153 nM
5,NS(=O)(=O)c1ccc(/N=C/c2ccccc2/C=N/c2ccc(S(N)(=O)=O)cc2)cc1,21.8 nM
6,NS(=O)(=O)c1nnc(/N=C/c2ccccc2/C=N/c2nnc(S(N)(=O)=O)s2)s1,5.8 nM
7,NS(=O)(=O)c1ccc(/N=C/c2ccc(/C=N/c3ccc(S(N)(=O)=O)cc3)cc2)cc1,934 nM

# Next, values leading:
row,Ki,SMILES
1,25.2 nM,NS(=O)(=O)c1nnc(/N=C/c2ccc(/C=N/c3nnc(S(N)(=O)=O)s3)cc2)s1
2,76.2 nM,NS(=O)(=O)c1ccc(/N=C/c2ccc(/C=N/c3ccc(S(N)(=O)=O)cc3)o2)cc1
3,261 nM,NS(=O)(=O)c1ccc(CC/N=C/c2ccc(/C=N/CCc3ccc(S(N)(=O)=O)cc3)cc2)cc1
4,5.9 nM,NS(=O)(=O)c1nnc(/N=C/c2ccc(/C=N/c3nnc(S(N)(=O)=O)s3)o2)s1
5,0.5 nM,NS(=O)(=O)c1nnc(/N=C/c2cccc(/C=N/c3nnc(S(N)(=O)=O)s3)c2)s1
6,319 nM,NS(=O)(=O)c1ccc(CC/N=C/c2cccc(/C=N/CCc3ccc(S(N)(=O)=O)cc3)c2)cc1
7,89.6 nM,NS(=O)(=O)c1cccc(/N=C/c2ccccc2/C=N/c2cccc(S(N)(=O)=O)c2)c1
8,1470 nM,NS(=O)(=O)c1cccc(/N=C/c2ccc(/C=N/c3cccc(S(N)(=O)=O)c3)cc2)c1
9,17.9 nM,NS(=O)(=O)c1ccc(CC/N=C/c2ccccc2/C=N/CCc2ccc(S(N)(=O)=O)cc2)cc1
